Test results published in patent US20070004620A1, “Fp receptor antagonists or pgf2 alpha antagonists for treating pathological conditions of the uterus” (priority 2002, published 2007).
Entries after “also recorded” stand apart in the source; their conditions may differ.

What was measured:
[1] = target: T1, DP (Homo sapiens, UniProt Q13258); details: 10 μM; cited from earlier work
T1 sequence (Q13258 1-359): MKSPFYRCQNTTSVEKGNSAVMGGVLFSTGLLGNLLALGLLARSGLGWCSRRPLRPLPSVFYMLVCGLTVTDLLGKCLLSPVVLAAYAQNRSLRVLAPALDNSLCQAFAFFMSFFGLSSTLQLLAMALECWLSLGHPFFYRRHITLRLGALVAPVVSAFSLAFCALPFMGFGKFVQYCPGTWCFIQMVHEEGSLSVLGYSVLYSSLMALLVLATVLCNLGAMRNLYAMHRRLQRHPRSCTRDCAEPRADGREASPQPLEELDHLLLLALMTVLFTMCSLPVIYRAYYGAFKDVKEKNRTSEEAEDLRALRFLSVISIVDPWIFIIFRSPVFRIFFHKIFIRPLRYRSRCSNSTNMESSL

[2] = system: PGF2α receptor; details: cited from earlier work
[3] = target: EP2 (Homo sapiens, UniProt P43116); details: 10 μM; cited from earlier work
[4] = target: T2, TP (Homo sapiens, UniProt P21731); details: 10 μM; cited from earlier work
T2 sequence (P21731 1-343): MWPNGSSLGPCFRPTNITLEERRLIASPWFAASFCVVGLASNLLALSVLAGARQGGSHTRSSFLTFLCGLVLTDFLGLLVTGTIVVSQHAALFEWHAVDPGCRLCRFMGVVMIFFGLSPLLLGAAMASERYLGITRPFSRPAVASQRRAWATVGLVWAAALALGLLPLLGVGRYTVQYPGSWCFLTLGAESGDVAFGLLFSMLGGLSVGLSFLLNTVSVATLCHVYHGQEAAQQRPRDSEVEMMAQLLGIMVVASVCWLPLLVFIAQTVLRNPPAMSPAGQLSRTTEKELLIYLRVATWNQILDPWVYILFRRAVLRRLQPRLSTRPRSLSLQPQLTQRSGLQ

[5] = target: EP4 (Homo sapiens, UniProt P35408); details: 10 μM; cited from earlier work
[6] = system: human endometrium; assay: Total inositol phosphate (InsP) assay in human endometrium tissue; format: cell-based
Protocol: (§1) PGF2α stimulation of total InsP production was as described (21). Briefly, tissue samples or Ishikawa cells were incubated with inositol free DMEM containing 1% dialyzed heat-inactivated FCS and 0.5 μCi/well myo-[^3H]inositol (Amersham Pharmacia Biotech) for 48 hours. Medium was removed, and cells washed with 1 ml buffer (140 mM NaCl, 20 mM HEPES, 4 mM KCl, 8 mM glucose, 1 mM MgCl2, 1 mM CaCl2, 1 mg/ml bovine serum albumin) containing 10 mM LiCl. Cells were then incubated for 1 hour at 37° C. in 1 ml buffer with or without inhibitors. Following incubation agonist was added at the required concentration and cells incubated for 1 hour. Reactions were terminated by the removal of agonist and the addition of 500 μl ice cold 10 mM formic acid, which was incubated for 30 minutes at 4° C. Total [^3H] inositol phosphates was separated from the formic acid cell extracts on AG 1-X8 anion exchange resin (Bio-Rad) and eluted with a 1 M ammonium formate/0.1 M formic acid solution. The associated radioactivity was determined by liquid scintillation counting and plotted relative to protein concentrations determined using the modified Lowry method.

[7] = system: HCT-8; details: HCT-8 human colon adenocarcinoma cell line; cited from earlier work
[8] = system: HT-29; details: HT-29 human colon adenocarcinoma cell line; cited from earlier work
[9] = system: Ishikawa cells; assay: ERK phosphorylation in Ishikawa cells; format: cell-based, human; details: 100 nM, treatment for 10 min
Protocol: ERK phosphorylation in Ishikawa cells. PGF2α 100 nM was incubated for 10 and 30 min. U73122 2 μM was pre-incubated for 60 min before treatment with PGF2α.

[10] = system: Ishikawa cells; assay: Total inositol phosphate (InsP) assay in Ishikawa cells; format: cell-based, human; details: PGF2α 100 nM
Protocol: as §1

[11] = system: Ishikawa cells; assay: Proliferation assay (BrdU incorporation ELISA) in Ishikawa cells; format: cell-based, human; details: U73122 2μM, no PGF2α
Protocol: Proliferation of Ishikawa cells was determined using a BrdU incorporation ELISA (Roche Diagnostics GmbH, Mannheim, Germany). Briefly, Ishikawa cells were seeded at 5×10^3 cells per well in a 96-well plate and allowed to adhere overnight. Cells were next starved for 24 hr with indomethacin 1.5 μg/ml before 24 h PGF2α treatment (1 nM-1 μM) in serum-free medium containing indomethacin. Inhibitors were added to cells for 60 min before PGF2α with the control well receiving the same concentration of vehicle. Following 24 h treatment, cells were labelled with BrdU for 4 h, then fixed and assayed for BrdU incorporation using standard immunohistochemical techniques. Results were plotted as percentages of untreated cells.

Sequence of EP2 (P43116 whole entry): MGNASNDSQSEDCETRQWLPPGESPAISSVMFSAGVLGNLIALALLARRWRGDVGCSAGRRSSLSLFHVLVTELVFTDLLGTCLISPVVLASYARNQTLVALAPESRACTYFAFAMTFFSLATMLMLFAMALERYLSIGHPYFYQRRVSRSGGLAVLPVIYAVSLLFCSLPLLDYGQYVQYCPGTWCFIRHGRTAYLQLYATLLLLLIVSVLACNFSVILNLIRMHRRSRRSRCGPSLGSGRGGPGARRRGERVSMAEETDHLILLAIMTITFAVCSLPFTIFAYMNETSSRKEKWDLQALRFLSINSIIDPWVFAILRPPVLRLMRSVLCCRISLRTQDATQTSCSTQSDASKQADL
Sequence of EP4 (P35408 whole entry): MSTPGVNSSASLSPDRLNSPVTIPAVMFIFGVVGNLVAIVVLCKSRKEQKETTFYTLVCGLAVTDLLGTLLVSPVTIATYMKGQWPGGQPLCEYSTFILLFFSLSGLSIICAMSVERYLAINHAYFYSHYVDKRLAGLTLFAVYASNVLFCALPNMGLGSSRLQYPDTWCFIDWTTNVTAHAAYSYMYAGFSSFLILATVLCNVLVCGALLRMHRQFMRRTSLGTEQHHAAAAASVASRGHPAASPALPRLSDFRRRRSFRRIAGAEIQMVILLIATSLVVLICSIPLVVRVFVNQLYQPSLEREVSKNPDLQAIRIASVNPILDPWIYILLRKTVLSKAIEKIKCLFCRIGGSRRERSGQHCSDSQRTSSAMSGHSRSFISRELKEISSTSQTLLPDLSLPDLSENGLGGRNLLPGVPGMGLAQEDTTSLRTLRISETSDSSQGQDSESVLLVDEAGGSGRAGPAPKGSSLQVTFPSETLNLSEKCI

O=C(O)CCC/C=C\C[C@@H]1[C@@H](/C=C/[C@H](O)C2Cc3ccccc3C2)[C@@H](F)C[C@@H]1O [AL-8810, (5Z, 13E)-(9S,11S,15R)-9,15-dihydroxy-11-fluoro-15-(2-indanyl)-16,17,18,19,20-pentanor-5,13-prostadienoic acid]
inhibition of functional responses of DP [1]: not to significantly inhibit | FP receptor antagonist potency [2]: micromolar | agonist activity at the PGF2α (FP) receptor [2]: weak partial agonist | antagonist activity at the PGF2α (FP) receptor [2]: highly selective antagonist | inhibition of functional responses of EP2 [3]: not to significantly inhibit | inhibition of functional responses of TP [4]: not to significantly inhibit | inhibition of functional responses of EP4 [5]: not to significantly inhibit

CCCCNC(=O)NS(=O)(=O)c1ccc(C)cc1 [tolbutamide]
antagonist activity at the PGF2α (FP) receptor [2]: very weak antagonists

prostaglandin F2α [PGF2α]
concentration at which maximal InsP mobilisation was observed [6]: 100 nM | proliferation by PGF2α [7]: lack of proliferation | proliferation by PGF2α [8]: lack of proliferation | fold increase in phosphorylated ERK intensity compared to native ERK [9]: 6.6±0.7 fold | total InsP, maximum [10]: 29 cpm/mg protein

CCCCC(F)[C@H](O)/C=C/[C@H]1CC[C@H](O)[C@@H]1C/C=C\CCCC(=O)O (stereo partly drawn) [AL-3138, 11-deoxy-16-fluoro PGF2α]
agonist activity at the PGF2α (FP) receptor [2]: weak partial agonist; also recorded: partial agonist of low efficacy | antagonist activity at the PGF2α (FP) receptor [2]: highly selective antagonist

Cc1ccc(S(=O)(=O)NC(=O)NN2CCCCCC2)cc1 [tolazamide]
antagonist activity at the PGF2α (FP) receptor [2]: very weak antagonists

COc1ccc2c(c1)CC[C@@H]1[C@@H]2CC[C@]2(C)[C@@H](NCCCCCCN3C(=O)C=CC3=O)CC[C@@H]12 [U73122]
basal proliferation after pre-incubation with inhibitor [11]: 93.9±1.9%
